The experiment addresses FAK (Homo sapiens (Human), UniProt Q05397). In words: FAK Degradation Assay (Western blot, FAK/GAPDH). Type of experiment: cell-based. The following applies: MDA-MB-231 cells, 24 h treatment, Western blot normalized to DMSO; for DC50: read-out: DC50 (half-maximal degradation concentration), FAK Degradation; for Dmax: read-out: Dmax (maximal degradation), FAK Degradation. On the procedure:
H2122 (4×10^5), MIA PaCa-2 (6×10s), or MDA-MB-231 cells (6×10^5) per well were seeded into a 6-well plate containing 2 mL of complete culture medium (RPMI-1640 for H2122 and MDA-MB-231, and DMEM/F12 for MIA PaCa-2, supplemented with 10% FBS and 1% penicillin/streptomycin). The cells were cultured overnight at 37° C. in the presence of 5% C02 before treated with a compound in a series of concentrations for 24 h. The cells were then washed with ice-cold Dulbecco's phosphate-buffered saline (DPBS). A radioimmuno-precipitation assay (RIPA) buffer was added to lyse the cells on ice for 20 min. The cells were then scrapped using cell scraper and collected in a 1.5 mL tube, which was centrifuged at 14,000 g and 4° C. for 15 min. The supernatant was collected and the total protein concentration of each sample was determined using a PIERCE™ BCA protein assay kit. The supernatant was diluted to the same protein concentration with the RIPA buffer after the BCA assay. Samples of the same protein amount were mixed with 4× a lithium dodecyl sulfate (LDS) sample buffer and boiled at 95° C. for 5 min. The denatured samples were used for electrophoresis.
For Western blot, the same volume containing ˜50 μg protein for each sample was loaded onto 4-12% Bis-Tris protein gel. The gel was run at 80 V for 0.5 h and at 120 V for 1 h. When the electrophoresis was completed, an IBLOT™ 2 gel transfer device was used to transfer FAK and GAPDH proteins at 20 V for 7 min. All the membranes were blocked in 5% nonfat dry milk in a TBST buffer at RT for 1 h and then incubated with primary antibodies (anti-FAK and anti-GAPDH) in a TBST buffer containing 5% BSA at 4° C. overnight. The membranes were washed with the TBST buffer and then incubated with secondary antibodies (goat anti-rabbit IgG H&L for FAK and goat anti-mouse IgG H&L for GAPDH) at room temperature for 1 h. Blots were visualized using an IMAGEQUANT™ LAS-4000. The chemiluminescent signals from ECL™ Western blotting reagents were captured. The band integrated intensity from each 16-bit blot image was used for quantitation. The FAK/GAPDH signal ratios of each sample were normalized using DMSO as a control and the normalized data for each compound were used to obtain its half-maximal degradation concentration (DC50) and maximal degradation (Dmax).
On the technique in general: In western blotting, separated proteins are transferred to a membrane and probed.

In patent US20250214967A1, “FAK DEGRADERS, PHARMACEUTICAL COMPOSITIONS, AND THERAPEUTIC APPLICATIONS” (Berrybio (Shanghai) Limited, priority 2022, published 2025) one finds DC50 and Dmax data, which are given here for 15 compounds.

Usually Dmax stands for the greatest extent of degradation seen.

Chain of FAK (Q05397 whole entry): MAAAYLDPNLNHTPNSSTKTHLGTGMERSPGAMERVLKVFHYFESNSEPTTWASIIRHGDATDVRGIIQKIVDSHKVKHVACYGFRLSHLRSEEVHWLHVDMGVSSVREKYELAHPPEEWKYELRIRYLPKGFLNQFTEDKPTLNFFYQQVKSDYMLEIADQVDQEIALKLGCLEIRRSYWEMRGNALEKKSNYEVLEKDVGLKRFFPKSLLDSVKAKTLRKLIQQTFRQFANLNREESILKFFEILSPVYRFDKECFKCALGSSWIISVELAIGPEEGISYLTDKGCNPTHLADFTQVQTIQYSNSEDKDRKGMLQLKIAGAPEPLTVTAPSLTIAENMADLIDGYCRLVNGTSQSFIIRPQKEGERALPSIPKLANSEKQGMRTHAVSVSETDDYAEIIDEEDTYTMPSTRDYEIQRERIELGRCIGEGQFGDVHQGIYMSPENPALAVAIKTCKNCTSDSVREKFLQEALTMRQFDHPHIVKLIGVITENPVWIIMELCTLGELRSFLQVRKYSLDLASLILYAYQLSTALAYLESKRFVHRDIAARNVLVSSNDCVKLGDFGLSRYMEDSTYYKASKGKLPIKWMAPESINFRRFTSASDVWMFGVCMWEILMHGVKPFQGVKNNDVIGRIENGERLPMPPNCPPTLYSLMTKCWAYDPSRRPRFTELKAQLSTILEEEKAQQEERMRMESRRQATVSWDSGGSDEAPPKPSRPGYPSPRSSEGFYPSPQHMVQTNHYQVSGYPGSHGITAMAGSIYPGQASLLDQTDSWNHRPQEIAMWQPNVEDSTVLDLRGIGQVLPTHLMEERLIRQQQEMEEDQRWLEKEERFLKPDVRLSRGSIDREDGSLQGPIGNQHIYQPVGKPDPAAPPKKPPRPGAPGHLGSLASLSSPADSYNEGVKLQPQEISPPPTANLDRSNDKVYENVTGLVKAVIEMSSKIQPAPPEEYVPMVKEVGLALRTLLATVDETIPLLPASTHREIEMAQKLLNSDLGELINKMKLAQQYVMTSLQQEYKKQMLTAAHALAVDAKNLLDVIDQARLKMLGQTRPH

Consider `CNC(=O)c1ccccc1Nc1nc(Nc2ccc(CNC3CCN(c4ccc5c(c4)C(=O)N(C4CCC(=O)NC4=O)C5=O)CC3)c(F)c2)ncc1C(F)(F)F` (stereo not drawn) [Compound A37, 2-((2-((4-(((1-(2-(2,6-dioxopiperidin-3-yl)-1,3-dioxoisoindolin-5-yl)piperidin-4-yl)-amino)methyl)-3-fluorophenyl)amino)-5-(trifluoromethyl)pyrimidin-4-yl)amino)-N-methyl-benzamide], for which the DC50 came to 860 pM and the Dmax came to 94%.

`CN1Cc2cccc(Oc3nc(Nc4ccc(CNC5CCN(c6ccc7c(c6)C(=O)N(C6CCC(=O)NC6=O)C7=O)CC5)cc4)ncc3C(F)(F)F)c2C1=O` (stereo not drawn) [Compound A28, 2-(2,6-dioxopiperidin-3-yl)-5-(4-((4-((4-((2-methyl-3-oxoisoindolin-4-yl)oxy)-5-(trifluoromethyl)pyrimidin-2-yl)amino)benzyl)amino)piperidin-1-yl)isoindoline-1,3-dione]: the DC50 stood at 870 pM and the greatest degradation seen (Dmax) worked out at 91%.

On to `CN(c1nccnc1CNc1nc(Nc2cccc(C(=O)NC3CCN(c4ccc5c(c4)C(=O)N(C4CCC(=O)NC4=O)C5=O)CC3)c2)ncc1C(F)(F)F)S(C)(=O)=O` (stereo not drawn) [Compound A12, N-(1-(2-(2,6-dioxopiperidin-3-yl)-1,3-dioxoisoindolin-5-yl)piperidin-4-yl)-3-((4-(((3-(N-methylmethylsulfonamido)pyrazin-2-yl)methyl)amino)-5-(trifluoromethyl)pyrimidin-2-yl)amino)benzamide], for which the DC50 is 5600 pM and the greatest degradation seen (Dmax) was determined as 98%.

For the compound `CN(c1cccc(CNc2cc(Nc3ccc(CNC4CCN(c5ccc6c(c5)C(=O)N(C5CCC(=O)NC5=O)C6=O)CC4)c(F)c3)ncc2C(F)(F)F)c1)S(C)(=O)=O` (stereo not drawn) [Compound A31, N-(3-(((2-((4-(((1-(2-(2,6-Dioxopiperidin-3-yl)-1,3-dioxoisoindolin-5-yl)-piperidin-4-yl)amino)methyl)-3-fluorophenyl)amino)-5-(trifluoromethyl)pyridin-4-yl)amino)-methyl)phenyl)-N-methylmethanesulfonamide], the DC50 was found to be 6100 pM and the Dmax was determined as 98%.

As to `CNC(=O)c1ccccc1Nc1cc(Nc2ccc3c(c2)CC(=O)N3CC2CCN(c3ccc4c(c3)C(=O)N(C3CCC(=O)NC3=O)C4=O)CC2)ncc1C(F)(F)F` (stereo not drawn) [Compound A17, 2-((2-((1-((1-(2-(2,6-Dioxopiperidin-3-yl)-1,3-dioxoisoindolin-5-yl)piperidin-4-yl)methyl)-2-oxoindolin-5-yl)amino)-5-(trifluoromethyl)pyridin-4-yl)amino)-N-methyl-benzamide], the DC50 worked out at 1700 pM and the Dmax came to 88%.

As for `COc1cc(CNC2CCN(c3ccc4c(c3)C(=O)N(C3CCC(=O)NC3=O)C4=O)CC2)c(F)cc1Nc1ncc(C(F)(F)F)c(Oc2cccc3c2C(=O)N(C)C3)n1` (stereo not drawn) [Compound A52, 2-(2,6-Dioxopiperidin-3-yl)-5-(4-((2-fluoro-5-methoxy-4-((4-((2-methyl-3-oxoisoindolin-4-yl)oxy)-5-(trifluoromethyl)pyrimidin-2-yl)amino)benzyl)amino)piperidin-1-yl)-isoindoline-1,3-dione], the DC50 is 780 pM and the Dmax was 95%.

`CNC(=O)c1ccccc1Nc1nc(Nc2ccc3c(c2)CC(=O)N3CC2CCN(c3ccc4c(c3)C(=O)N(C3CCC(=O)NC3=O)C4=O)CC2)ncc1C(F)(F)F` (stereo not drawn) [Compound A38, 2-((2-((1-((1-(2-(2,6-dioxopiperidin-3-yl)-1,3-dioxoisoindolin-5-yl)piperidin-4-yl)methyl)-2-oxoindolin-5-yl)amino)-5-(trifluoromethyl)pyrimidin-4-yl)amino)-N-methylbenzamide]: the DC50 stood at 840 pM and the Dmax amounted to 88%.

With `CN(c1ccccc1CNc1cc(Nc2ccc(CNC3CN(c4ccc5c(c4)C(=O)N(C4CCC(=O)NC4=O)C5=O)C3)cc2)ncc1C(F)(F)F)S(C)(=O)=O` (stereo not drawn) [Compound A19, N-(2-(((2-((4-(((1-(2-(2,6-Dioxopiperidin-3-yl)-1,3-dioxoisoindolin-5-yl)azetidin-3-yl)amino)methyl)phenyl)amino)-5-(trifluoromethyl)pyridin-4-yl)amino)methyl)phenyl)-N-methylmethanesulfonamide], the DC50 is 2800 pM and the Dmax came out at 96%.

`CNC(=O)c1ccccc1Nc1cc(Nc2ccc(CN[C@@H]3CCN(c4ccc5c(c4)C(=O)N(C4CCC(=O)NC4=O)C5=O)C3)cc2)ncc1C(F)(F)F` (stereo partly drawn) [Compound A32, 2-((2-((4-((((3R)-1-(2-(2,6-Dioxopiperidin-3-yl)-1,3-dioxoisoindolin-5-yl)-pyrrolidin-3-yl)amino)methyl)phenyl)amino)-5-(trifluoromethyl)pyridin-4-yl)amino)-N-methylbenzamide]: the DC50 amounted to 790 pM and the Dmax worked out at 91%.

As for `CNC(=O)c1ccccc1Nc1cc(Nc2ccc(CNC3CCN(c4ccc5c(c4)C(=O)N(C4CCC(=O)NC4=O)C5=O)CC3)c(F)c2)ncc1C(F)(F)F` (stereo not drawn) [Compound A29, 2-((2-((4-(((1-(2-(2,6-dioxopiperidin-3-yl)-1,3-dioxoisoindolin-5-yl)piperidin-4-yl)amino)-methyl)-3-fluorophenyl)amino)-5-(trifluoromethyl)pyridin-4-yl)amino)-N-methyl-benzamide], the DC50 is 8550 pM and the Dmax came to 97%.

In the case of `CS(=O)(=O)c1cccc(CNc2nc(Nc3ccc4c(c3)CC(=O)N4CC3CCN(c4ccc5c(c4)C(=O)N(C4CCC(=O)NC4=O)C5=O)CC3)ncc2C(F)(F)F)c1` (stereo not drawn) [Compound A23, 2-(2,6-dioxopiperidin-3-yl)-5-(4-((5-((4-((3-(methylsulfonyl)benzyl)amino)-5-(trifluoromethyl)pyrimidin-2-yl)amino)-2-oxoindolin-1-yl)methyl)piperidin-1-yl)isoindoline-1,3-dione], the DC50 came to 1300 pM and the Dmax came out at 96%.

For `CNC(=O)c1ccccc1Nc1cc(Nc2ccc(CN[C@H]3CCN(c4ccc5c(c4)C(=O)N(C4CCC(=O)NC4=O)C5=O)C3)cc2)ncc1C(F)(F)F` (stereo partly drawn) [Compound A33, 2-((2-((4-((((3S)-1-(2-(2,6-Dioxopiperidin-3-yl)-1,3-dioxoisoindolin-5-yl)-pyrrolidin-3-yl)amino)methyl)phenyl)amino)-5-(trifluoromethyl)pyridin-4-yl)amino)-N-methylbenzamide], the DC50 worked out at 860 pM and the Dmax was found to be 94%.

Consider `CNC(=O)c1ccccc1Nc1nc(Nc2ccc(CN[C@@H]3CCN(c4ccc5c(c4)C(=O)N(C4CCC(=O)NC4=O)C5=O)C[C@@H]3F)cc2)ncc1C(F)(F)F` (stereo partly drawn) [Compound A39, 2-((2-((4-((((3S,4R)-1-(2-(2,6-Dioxopiperidin-3-yl)-1,3-dioxoisoindolin-5-yl)-3-fluoropiperidin-4-yl)amino)methyl)phenyl)amino)-5-(trifluoromethyl)pyrimidin-4-yl)amino)-N-methylbenzamide], for which the DC50 worked out at 710 pM and the Dmax came to 89%.

On to `CN(c1nccnc1CNc1nc(Nc2cccc(C(=O)N3CCC(N4CCN(c5ccc6c(c5)C(=O)N(C5CCC(=O)NC5=O)C6=O)CC4)CC3)c2)ncc1C(F)(F)F)S(C)(=O)=O` (stereo not drawn) [Compound A11, N-(3-(((2-((3-(4-(4-(2-(2,6-Dioxopiperidin-3-yl)-1,3-dioxoisoindolin-5-yl)-piperazin-1-yl)piperidine-1-carbonyl)phenyl)amino)-5-(trifluoromethyl)pyrimidin-4-yl)amino)-methyl)pyrazin-2-yl)-N-methylmethanesulfonamide], for which the DC50 worked out at 830 pM and the Dmax was found to be 94%.

`CN(c1nccnc1CNc1nc(Nc2ccc(OCCCCCCOc3ccc4c(c3)C(=O)N(C3CCC(=O)NC3=O)C4=O)cc2)ncc1C(F)(F)F)S(C)(=O)=O` (stereo not drawn) [Compound A8, N-(3-(((2-((4-((6-((2-(2,6-Dioxopiperidin-3-yl)-1,3-dioxoisoindolin-5-yl)oxy)-hexyl)oxy)phenyl)amino)-5-(trifluoromethyl)pyrimidin-4-yl)amino)methyl)pyrazin-2-yl)-N-methylmethanesulfonamide]: the DC50 came out at 4100 pM and the Dmax is 100%.
